Experimental data published in patent US7074801B1, “Nitrogen-containing condensed cyclic compound having a pyrazolyl group as a substituent group and pharmaceutical composition thereof” (Eisai Co., Ltd., priority 2001, dated 2006).
Structures can show the parent of a compound that is named as a salt.

Tested on: STAT6
Assay: Inhibitory test on STAT6 activation: IL-4-induced alkali phosphatase STAT6 reporter in 293 cells stably expressing the STAT6 gene and STAT6 reporter gene
Assay type: cell-based
Details: HEK293; Table 1; 1 ng/ml human recombinant IL-4, 16 hours, 293 cells with STAT6 reporter; read-out: Inhibitory activity IC50 (concentration at which the alkali phosphatase activity induced by IL-4 was inhibited by 50%)
Protocol: The inhibitory action of the present compound on activation of STAT6 was evaluated according to the following experiments.
1) Construction of a STAT6 Reporter Gene
An oligonucleotide of SEQ ID NO:1 in which three STAT6-binding regions on a human immunoglobulin germline E gene promoter had been linked was mixed with its complementary chain, thermally denatured and annealed, and 5′- and 3′-ends thereof were cleaved with restriction enzymes Kpn I (Code No. 1068A, Takara Shuzo) and Xba I (Code No. 1093A, Takara Shuzo) respectively, and the resulting fragment was cloned into a Kpn I/Xba I site of pUG-BGH-PLAP vector (described in Molecular Pharmacology, 49:860–873, 1996). To induce a basic transcriptional factor, a TK promoter region of herpes virus was cloned into an Xba I/Hind III (Code No. 1060A, Takara Shuzo) site of the pUG-BGH-PLAP vector. To obtain a stably expressing cell strain, a neomycin resistance gene (PGK-neo expression cassette) was integrated with an Sal I (Code No. 1080A, Takara Shuzo) of this vector. Cloning of the TK promoter and PGK-neo expression cassette was carried out according to Molecular Pharmacology, 49:860–873, 1996.
The underlined sites are a Kpn I recognition site and Xba I recognition site respectively. 2) Construction of an STAT6 Expression Vector
An oligonucleotide of SEQ ID NO:2 containing an initiation codon of STAT6 gene and an oligonucleotide of SEQ ID NO:3 containing a stop codon were used, and total RNA was prepared from human peripheral blood cells by using RNeasy Mini kit (Code No. 74104, OIAGEN). Then, cDNA was prepared by reverse transcription reaction using Takara RNA LA PCR kit (Code No. RR012A, Takara Shuzo) and then subjected to PCR reaction with primers of SEQ ID NOS:2 and 3, to amplify the STAT6 gene. • (SEQ ID NO:2) 5′-[…]-3′ The underlined site is an EcoR I recognition site. • (SEQ ID NO:3) 5′-[…]-3′ The underlined site is an Xho I recognition site.
The PCR product was digested with EcoR I (Code No. 1040A, Takara Shuzo) and Xho I (1094A, Takara Shuzo), and the digested fragment was isolated on an agarose gel. The isolated fragment was integrated into a vector fragment obtained by digesting pcDNA3.1 (+) (Code No. U790-20, Invitrogen) vector with EcoRI/Xho I.
3) Introduction of the Gene and Preparation of a Stably Expressing Cell Strain
Human fetal kidney-derived 293 cells (American Type Culture Collection), 3.0×10^5 cells, were spread on a Falcon tissue culture 6-well plate (Code No. 35-3046, Becton Dickinson) and cultured overnight. 1.5 μg of the prepared STAT6 reporter gene, 1.5 μg of the STAT6 gene and 20 μl of lipofectamine (Code No. 18324-012, GIBCO BRL) were mixed in 0.3 ml OPTI-MEM medium (Code No. 31985-070) and left at room temperature for 20 minutes. Thereafter, 1.2 ml OPTI-MEM medium was further added to the cells washed with OPTI-MEM medium not containing fetal bovine serum, and the cells were cultured for 2 hours. 1.5 ml medium containing fetal bovine serum was added thereto, and the cells were cultured for additional 19 hours. The medium was exchanged with a fresh one, and Geneticin (Code No. G-5013, SIGMA) was added at a concentration of 1 mg/ml, and the cells were cultured, and chemical-resistant cells were selected. The resulting chemical-resistant cells were floated in a medium containing 1 mg/ml Geneticin, then spread at a density of 0.5 cell/well on a 96-well microplate (Code No. 35-3072, Becton Dickinson) and cloned to give a clone expressing alkali phosphatase in response to IL-4.
4) Inhibitory Test on STAT6 Activation
The cells stably expressing the STAT6 gene and STAT6 reporter gene and expressing alkali phosphatase in response to IL-4 were spread at a density of 5000 cells/180 μl/well on a 96-well microplate (Code No. 35-3072, Becton Dickinson) and cultured overnight. […]

| SMILES | IC50 |
| --- | --- |
| Fc1ccc(-c2n[nH]cc2-c2ccc3ncc(-c4ccc(Cl)s4)n3c2)cc1 [Example 70, 3-(5-Chloro-2-thienyl)-6-[3-(4-fluorophenyl)-1H-4-pyrazolyl]imidazo[1,2-a]pyridine dihydrochloride] | 0.01 to 0.1 µM |
| N#Cc1ccc(-c2cnc3ccc(-c4c[nH]nc4-c4ccc(F)cc4)cn23)s1 [Example 71, 5-{6-[3-(4-Fluorophenyl)-1H-4-pyrazolyl]imidazo[1,2-a]-pyridin-3-yl}-2-thiophene carboxynitrile dihydrochloride] | 0.01 to 0.1 µM |
| N#Cc1ccc(-c2cnc3ccc(-c4c[nH]nc4-c4ccc(F)cc4)cn23)cc1 [Example 77, 4-{6-[3-(4-Fluorophenyl)-1H-4-pyrazolyl]imidazo[1,2-a]-pyridin-3-yl}benzonitrile dihydrochloride] | < 0.01 µM |
| NC(=O)c1ccc(-c2cnc3ccc(-c4c[nH]nc4-c4ccc(F)cc4)cn23)cc1 [Example 78, 4-{6-[3-(4-Fluorophenyl)-1H-4-pyrazolyl]imidazo[1,2-a]-pyridin-3-yl}benzamide dihydrochloride] | < 0.01 µM |
| CC(=O)NCCCOc1ccc(-c2cnc3ccc(-c4c[nH]nc4-c4ccc(F)cc4)cn23)cc1 [Example 87, N-[3-(4-{6-[3-(4-Fluorophenyl)-1H-4-pyrazolyl]imidazo-[1,2-a]pyridin-3-yl}phenoxy)propyl]acetamide] | < 0.01 µM |
| NC(=O)[C@@H]1CCCN1Cc1ccc(-c2cnc3ccc(-c4c[nH]nc4-c4ccc(F)cc4)cn23)s1 [Example 92, (2S)-1-[(5-{6-[3-(4-Fluorophenyl)-1H-4-pyrazolyl]-imidazo-[1,2-a]pyridin-3-yl}-2-thienyl)methyl]tetrahydro-1H-2-pyrrole carboxyamide trihydrochloride] | < 0.01 µM |
| CS(=O)(=O)c1ccc(-c2n[nH]cc2-c2ccc3ncc(-c4ccc(F)cc4)n3c2)cc1 [Example 101, 3-(4-Fluorophenyl)-6-{3-[4-(methylsulfonyl)phenyl]-1H-4-pyrazolyl}imidazo[1,2-a]pyridine dihydrochloride] | 0.01 to 0.1 µM |
| CS(=O)(=O)c1ccc(-c2n[nH]cc2-c2ccc3ncc(-c4ccc(C#N)cc4)n3c2)cc1 [Example 102, 4–6-(3-[4-(Methylsulfonyl)phenyl]-1H-4-pyrazolyl}imidazo-[1,2-a]pyridin-3-yl)benzonitrile dihydrochloride] | 0.01 to 0.1 µM |
| N#Cc1ccc(-c2n[nH]cc2-c2ccc3ncc(-c4ccc(C(N)=O)cc4)n3c2)cc1 [Example 108, 4-{6-[3-(4-Cyanophenyl)-1H-4-pyrazolyl]imidazo[1,2-a]-pyridin-3-yl}benzamide dihydrochloride] | < 0.01 µM |
| N#Cc1ccc(-c2n[nH]cc2-c2ccc3ncc(-c4ccc(CN5CCC[C@H]5C(N)=O)s4)n3c2)cc1 [Example 109, (2S)-1-{[(5-{6-[3-(4-Cyanophenyl)-1H-4-pyrazolyl]imidazo-[1,2-a]pyridin-3-yl}-2-thienyl)methyl]tetrahydro-1H-2-pyrrolecarboxyamidetrihydrochloride] | < 0.01 µM |
| O=C(c1ccc(-c2n[nH]cc2-c2ccc3ncc(-c4ccccn4)n3c2)cc1)N1CCOCC1 [Example 115, Morpholino(4-{4-[3-(2-pyridyl)imidazo[1,2-a]pyridin-6-yl]-1H-3-pyrazolyl}phenyl)methanone] | < 0.01 µM |
| Cc1n[nH]cc1-c1ccc2ncc(-c3ccc(CN4CCC[C@H]4C(N)=O)s3)n2c1 [Example 120, (2S)-1-({5-[6-(3-Methyl-1H-4-pyrazolyl)imidazo[1,2-a]-pyridin-3-yl]-2-thienyl}methyl)tetrahydro-1H-2-pyrrole carboxyamide trihydrochloride] | < 0.01 µM |
| N#Cc1ccc(-c2n[nH]cc2-c2ccc3ncn(-c4ccc(C#N)cn4)c3c2)cc1 [Example 148, 6-{6-[3-(4-Cyanophenyl)-1H-4-pyrazolyl]-1H-benzo[d]-imidazol-1-yl}nicotinonitrile trihydrochloride] | < 0.01 µM |
| CN1CCN(c2ccnc3ccc(-c4c[nH]nc4-c4ccc(F)cc4)cc23)CC1 [Example 203, 6-[3-(4-Fluorophenyl)-1H-4-pyrazolyl]-4-(4-methylpiperazin-1-yl)quinoline dihydrochloride] | 0.01 to 0.1 µM |
| Cc1n[nH]cc1-c1ccc2nccc(N3CCN(C(=O)Nc4ccccc4)CC3)c2c1 [Example 212, N-Phenyl-4-[6-(3-methyl-1H-4-pyrazolyl)-4-quinolyl]-1-piperazine carboxamide dihydrochloride] | < 0.01 µM |
| O=C(N1CCCC1)N1CCN(c2ccnc3ccc(-c4c[nH]nc4C(F)(F)F)cc23)CC1 [Example 224, Tetrahydro-1H-1-pyrrolyl{4-[6-(3-trifluoromethyl-1H-pyrazolyl)-4-quinolyl]piperazin-1-yl}methanone] | < 0.01 µM |
| Cc1n[nH]cc1-c1ccc2nccc(N3CCN(C(=O)N(C)CCN(C)C)CC3)c2c1 [Example 227, N-[2-(Dimethylamino)ethyl]-N-methyl-4-[6-(3-methyl-1H-4-pyrazolyl)-4-quinolyl]-1-piperazine carboxamide dihydrochloride] | 0.01 to 0.1 µM |
| COC1CCN(c2ccnc3ccc(-c4c[nH]nc4C)cc23)CC1 [Example 230, 4-(4-Methoxypiperidino)-6-(3-methyl-1H-4-pyrazolyl)quinoline dihydrochloride] | < 0.01 µM |
| Cc1n[nH]cc1-c1ccc2nccc(N3CCC(Oc4ccc(S(C)(=O)=O)cc4)CC3)c2c1 [Example 239, 6-(3-Methyl-1H-4-pyrazolyl)-4-{4-[4-(methylsulfonyl)-phenoxy]piperidino}quinoline dihydrochloride] | < 0.01 µM |
| COc1ccc(-c2ncnc3ccc(-c4c[nH]nc4-c4ccc(F)cc4)cc23)cc1 [Example 254, 6-[3-(4-Fluorophenyl)-1H-4-pyrazolyl]-4-[4-(methoxyphenyl)-quinazolinedihydrochloride] | 0.01 to 0.1 µM |
| COc1ccc(-c2n[nH]cc2-c2ccc3ncnc(-c4ccc(S(C)(=O)=O)s4)c3c2)cc1OC [Example 261, 6-[3-(3,4-Dimethoxyphenyl)-1H-4-pyrazolyl]-4-[5-(methylsulfonyl)-2-thienyl]quinazoline dihydrochloride] | 0.1 to 1 µM |
| FC(F)(F)c1cccc(N2CCN(c3ncnc4ccc(-c5cn[nH]c5)cc34)CC2)c1 [Example 265, 6-(1H-4-Pyrazolyl)-4-{4-[3-(trifluoromethyl)phenyl]-piperazin-1-yl}quinazoline trihydrochloride] | 0.01 to 0.1 µM |
| Clc1ccccc1N1CCN(c2ncnc3ccc(-c4cn[nH]c4)cc23)CC1 [Example 287, 4-[4-(2-Chlorophenyl)piperazin-1-yl]-6-(1H-4-pyrazolyl)-quinazoline] | 0.01 to 0.1 µM |
| CN(C(=O)N1CCOCC1)c1ccc(-c2n[nH]cc2-c2ccc3ncc(-c4ccccn4)n3c2)cc1 [Example 534, Morpholine-4-carboxylic acid methyl(4-[4-(3-pyridin-2-ylimidazo[1,2-a]pyridin-6-yl)-1H-pyrazol-3-yl]phenyl} amide] | < 0.01 µM |
| c1ccc(-c2cnc3ccc(-c4c[nH]nc4-c4ccc(N5CCOCC5)cc4)cn23)nc1 [Example 539, 6-[3-(4-Morpholine-4-ylphenyl)-1H-pyrazol-4-yl]-3-(pyridin-2-yl)imidazo[1,2-a]pyridine] | < 0.01 µM |
| CS(=O)(=O)c1cnc(-c2cnc3ccc(-c4c[nH]nc4-c4c(F)cccc4F)cn23)s1 [Example 549, 6-[3-(2,6-Difluorophenyl)-1H-pyrazol-4-yl]-3-(5-methylsulfonylthiazol-2-yl)imidazo[1,2-a]pyridine] | < 0.01 µM |
